Measurements from paper PMC5078090, “In vivo screening and discovery of novel candidate thalidomide analogs in the zebrafish embryo and chicken embryo model systems” (Oncotarget, 2016).
“Also recorded” adds a separate entry of the source.

What was measured:
[1] = test system: Tg(MPO::EGFP)^114 zebrafish; test: Tg(MPO::EGFP)^114 zebrafish tail fin clip assay of neutrophil migration to the wound site; assay type: in vivo; details: for minimal effective concentration: Danio rerio, Neutrophil, fin clipped at 72 hpf, imaged at 24 h, screened 1-200 μg/mL, where no activity was seen the concentration shown is the lowest screened; for Effect on neutrophil migration to the wound site (anti-inflammatory activity): fin clipped 72 hpf embryos, result in words
From the text: To assess the immunomodulatory effects of the thalidomide analogs across the concentration range used in the previous assay, the transgenic zebrafish line Tg(MPO::EGFP)^114 was used. These embryos express GFP tagged myeloperoxidase, marking neutrophils during the inflammatory response, for example following injury. […] This allowed us to subsequently assess the anti-inflammatory activity of each compound by immersing embryos in the test drug or vehicle. The embryos were examined for migration of neutrophils to the wound site. In comparison to control embryos (Figure 3A) compounds with anti-inflammatory properties had reduction of at least 50% of neutrophils recruited to the wound site (Figure 3). […] We also screened the previously identified six anti-angiogenic compounds of interest in the Tg(MPO::EGFP)^114 line.
Figure 3 The effect of thalidomide analogs on the inflammatory response to wound healing A. Zebrafish (72 hpf) embryos transgenic for a fluorescently tagged neutrophil marker Tg(MPO::EGFP)^114 were fin clipped to induce an inflammatory response and exposed to vehicle or a test compound. Broken line indicates the tail fin with cut and area of the wound site. […] The data represent the mean + the standard error of the mean.
Tg(MPO::EGFP)^114 embryos were tail fin clipped as previously detailed and incubated with test compounds or vehicle control at 72 hpf. Fish were imaged at 24 hours and the number of migratory neutrophils present at the wound site were counted. Compounds inducing an at least 50% reduction of neutrophils to the wound site were considered to have anti-inflammatory properties in this system. All larvae were assessed for viability and morphological integrity. A minimum of 10 embryos were used per concentration per drug. Error bars represent standard error of the mean.
(§1) A broad series of novel thalidomide-based compounds were chemically synthesized (WL, NHG and WDF, NIH), dissolved in DMSO, stored in stock concentrations between 10-100 mg/mL, and used at a final working DMSO concentration of 0.1%. The chemical structures of lead compounds of interest were confirmed by chemical characterization (purity >99.5%). Compounds were screened across a range of concentrations from 1-200 μg/mL to determine the lowest effective concentration.

[2] = test system: fli1:EGFP zebrafish embryos; test: fli1:EGFP zebrafish embryo angiogenesis assay (intersegmental vessel outgrowth and number); assay type: in vivo; details: for minimal effective concentration: Danio rerio, 24 h, 24 hpf embryos exposed 24 h, screened 1-200 μg/mL, where no activity was seen the concentration shown is the lowest screened; for Anti-angiogenic activity (loss of ISVs or inhibition of ISV outgrowth): fli1:EGFP embryos, 24 h incubation, result in words; for Lowest effective anti-angiogenic concentration, fli1:EGFP assay (molar): inhibition of vessel outgrowth and number, 24 h exposure
Procedure: To determine if our novel thalidomide analogs (Figure 1) had any effect on in vivo angiogenesis, we used fli1:EGFP embryos which express green fluorescent protein (GFP) on endothelial cells throughout development. Embryos were allowed to develop for 24 hours, then exposed to either vehicle or a compound of interest at the concentration range of 1 to 200 μg/mL. During this time the vasculature is rapidly expanding and developing new, naive intersegmental vessels (ISVs). The embryos were imaged after 24 hours of incubation with the drug (Figure 2A). […] We also observed that the potency of each compound varied.
Figure 2 The effect of novel thalidomide analogs on vessel length fli1:EGFP zebrafish were incubated with vehicle or compounds for 24 hours, at which point vessel outgrowth and number were measured. A. Images of zebrafish exposed to the vehicle or test compounds. […] Treatment with C4 (1.5 μg/mL), C18 (50 μg/mL), C81 (50 μg/mL), C82 (5 μg/mL), C83 (20 μg/mL) and C84 (50 μg/mL) show reduction in vessel out growth (white arrow) and in some cases loss of vessel (white asterisks). B. Stalk length & C. stalk number are reduced. Compounds are shown at the lowest concentration producing an effect. The data represent the mean + the standard error of the mean.
Zebrafish embryos were treated with analogs as previously described. Briefly, fli1:EGFP embryos were collected and embryos were allowed to develop for 24 hours. Embryos were dechorionated manually and exposed to test compounds or vehicle control (0.1% DMSO) for a further 24 hours. Embryos were anesthetized with 0.05% MS222 (Tricaine) (Sigma Aldrich) and live visualization of blood vessels was carried out.
as §1

WT Zebrafish = test: WT zebrafish embryo developmental defect (teratogenicity) screen; assay type: in vivo; details: for Eye development / eye diameter in zebrafish embryos / Pectoral fin development / fin length in zebrafish embryos: Figure 4, result in words; for Lowest effective concentration, WT Zebrafish assay: screened 1-200 μg/mL, where no activity was seen the concentration shown is the lowest screened
chicken embryos = test: In ovo chicken embryo teratogenicity assay; assay type: in vivo, white leghorn chicken; details: for Damage observed: HH stage 17-18 chicken embryos, 100 μg/mL; for Lowest effective concentration, Chicken assay: HH stage 17-18 embryos, where no activity was seen the concentration shown is the lowest screened
Procedure: Compounds of interest were screened in chicken and/or zebrafish embryos (Figure 4), to determine if these compounds are teratogenic. The chicken embryo is well established as a model to determine the action of compounds upon development.
Fertilized white leghorn chicken embryos were incubated at 38°C and staged according to the Hamburger and Hamilton (HH) stages of development. Embryos were tested at HH stage 17-18 (day 2.5). Following membrane removal test compounds or vehicle control solutions were applied over the embryo. The eggs were sealed and the development of the embryos was monitored up to HH stage 30 (E9). A minimum of 3 embryos were used per concentration, per drug.

[3] = applied at HH stage 17-18, result in words

SMILES | minimal effective concentration [1] [µg/mL] | minimal effective concentration [2] [µg/mL] | Anti-angiogenic activity (loss of ISVs or inhibition of ISV outgrowth) [2] | Lowest effective anti-angiogenic concentration, fli1:EGFP assay (molar) [2] [µM] | Eye development / eye diameter in zebrafish embryos (WT Zebrafish) | Pectoral fin development / fin length in zebrafish embryos (WT Zebrafish) | Lowest effective concentration, WT Zebrafish assay (WT Zebrafish) [µg/mL] | Damage observed (chicken embryos) | Lowest effective concentration, Chicken assay (chicken embryos) [µg/mL] | Defects in chicken embryo development (text and figure legend) (chicken embryos; [3]) | Effect on neutrophil migration to the wound site (anti-inflammatory activity) [1] | Teratogenicity in these assays (chicken embryos; chicken and zebrafish embryo assays together, result in words) | Defects in chicken embryo development (text and figure legend) (chicken embryos; in vivo)
O=C1c2ccccc2C(=S)N1C1CCC(=S)NC1=S (stereo not shown) [Compound C4] | 10 | 1.5 to 100 | anti-angiogenic activity | 4.9 | microopthalmia; also recorded: reductions in eye diameter | malformation in fin development | 10 | Necrotic YSM, hemorrhaging | 100 | hemorrhaging; also recorded: abnormal blood vessels and necrotic-like regions in the surrounding yolk sac membrane | – | – | –
O=C1NC(=S)CCC1N1C(=O)c2cccc([N+](=O)[O-])c2C1=O (stereo not shown) [Compound C7] | 10 | 10 | without anti-angiogenic activities | – | – | – | 10 | – | 100 | no effect | reduced neutrophil migration | non-teratogenic | –
Nc1cccc2c1CN(C1CCC(=O)NC1=O)C2=S (stereo not shown) [Compound C29] | 5 | 10 | – | – | – | – | – | Twisted spines, hemorrhaging | 100 | hemorrhaging and necrotic-like damage in the YSM | reduced neutrophil migration | – | twisted spinal cords, necrotic-like damage in the YSM and high death rates
CC(N1Cc2c(N)cccc2C1=O)C12CC3CC(CC(C3)C1)C2 (stereo not shown) [Compound C81] | 50 | – | anti-angiogenic activity | 161.07 | – | reductions | 10 | Hemorrhaging, microopthalmia, | 100 | microphthalmia; also recorded: growth reduction and hemorrhaging throughout head | – | – | –
CC(=O)Oc1ccc2c(c1)C(=O)N(C1CCC(=O)NC1=O)C2=O (stereo not shown) [Compound C18] | 50 | – | anti-angiogenic activity | – | reductions in eye diameter | reductions | 50 | Necrotic YSM, stunted growth | 100 | reduced body size compared to control embryos; also recorded: abnormal blood vessels and necrotic-like regions in the surrounding yolk sac membrane | significantly reduce neutrophil migration | – | –
O=C1c2c(F)c(F)c(F)c(F)c2C(=O)N1c1ccc(F)cc1F [CPS49, reference compound] | – | – | reduction in vessel outgrowth (white arrow), loss of vascular connectivity and a decrease in the number of forming blood vessels | – | – | – | – | – | – | – | – | – | –
